Values joined by “and” are separate entries in the source; they are usually repeats but may differ in a detail not shown here. Equal values may be shown once. Read-outs that look alike come from different tables or passages of the source.
Columns and labels:
P. falciparum 3D7 [1] = assay: 3-day SYBR Green I growth inhibition assay (GIA), strain 3D7; assay type: cell-based, Plasmodium falciparum; conditions: 3-day SYBR Green I GIA, drug-sensitive strain 3D7, read-out: Antiplasmodial activity EC50, 3D7
Procedure, shortened: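 Sorbitol-synchronized ring-stage parasites at 1% parasitemia and 2% hematocrit, cultured 72 h with compounds at 1% DMSO final. Growth read by SYBR Green I staining. EC50 from curve fitting.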

[2] = In vitro cytotoxicity analysis (CellTiter-Glo), 293T; conditions: human, 293T cells, Cytotoxicity EC50, 293T, 72 h, CellTiter-Glo
Experimental: (§1) In all, 1% DMSO was used as a negative control. The inhibition of each drug was normalized to that of the DMSO control. EC50 was calculated by GraphPad Prism. Three independent assays with two technical replicates each time were conducted in this experiment.

293T cells = assay: as above
Experimental: as §1

P. falciparum CP286 = assay: 3-day SYBR Green I GIA, strain CP286; assay type: cell-based; conditions: Plasmodium falciparum; CP286 resistant to pyrimethamine and chloroquine; read-out: Resistant isolates EC50, CP286
Experimental: (§2) A 3-day SYBR Green I inhibition EC50 assay was performed as described previously. Briefly, highly synchronized ring-stage parasites by 5% sorbitol (1% parasitemia and 2% hematocrit) were incubated in a 96-well plate with compounds in a total volume of 200 μL. […] The parasites were cultured for 72 h before SYBR Green I staining as described above. The EC50 was calculated by GraphPad Prism. DHA was used as a positive control, and the final concentration of DMSO was 1%.

[3] = test system: P. falciparum isolate 6218; assay: 3-day SYBR Green I GIA, field isolate 6218; assay type: cell-based; conditions: Plasmodium falciparum; artemisinin- and piperaquine-resistant isolate; read-out: Resistant isolates EC50, 6218
Experimental: as §2

[4] = test system: P. falciparum isolate 6320; assay: 3-day SYBR Green I GIA, field isolate 6320; assay type: cell-based; conditions: Plasmodium falciparum; artemisinin- and piperaquine-resistant isolate; read-out: Resistant isolates EC50, 6320
Experimental: as §2

[5] = test system: drug-sensitive and multidrug-resistant strains of P. falciparum; assay: 3-day SYBR Green I GIA, summary over several strains; assay type: cell-based; conditions: Plasmodium falciparum
Experimental: as §2

P. falciparum 3D7 [6] = assay: Ring-stage survival assay (RSA), sensitive strain 3D7; assay type: cell-based, Plasmodium falciparum; conditions: 700 nM
[7] = Liver microsome metabolism assay, mouse; assay type: in vitro ADME; conditions: for half-life at 1 µM: mouse, liver microsomes
Experimental: Liver microsomes (0.5 mg/mL) were purchased from Corning. Ketanserin was selected as a positive control. The tested compounds were first dissolved in DMSO to a concentration of 10 mM and then diluted to 0.5 mM with acetonitrile. Liver microsome buffer was used to dilute the compounds to a working concentration of 1.5 µM, 30 µL of which was mixed with 15 µL of 6 mM NADPH at 37 °C. At 0, 5, 15, 30, and 45 min after incubation, 135 µL of acetonitrile was added to quench the reaction. The mixture was shaken on a vortex mixer (IKA, MTS 2/4) for 10 min at 600 rpm/min and then centrifuged at 5594× g for 15 min (Thermo Multifuge×3R). The supernatant was diluted 1:1 into distilled water, and analyzed by LC-MS/MS.

[8] = test system: P. berghei-ANKA-GFP-luc sporozoites; assay: In vivo liver-stage parasite inhibition assay; design: species or system Plasmodium berghei in BALB/c mice
Experimental: An in vivo liver-stage parasite inhibition assay was conducted as described previously[68],[69]. Briefly, five female BALB/c mice (6 weeks, 18 g) per group were infected with 5000 P. berghei-ANKA-GFP-luc sporozoites by i.v injection followed immediately by i.v.-administered JX21108 at a single dose of 30 mg/kg or 60 mg/kg (day 0). The β-cyclodextrin was used as a blank control. For fluorescence detection, 3 mg of D-luciferin sodium (Sinochrome BC-220–10) in 100 μL of ddH2O was i.p. injected into each mouse. The fluorescence signals were visualized by an IVIS Lumina series (PerkinElmer) on days 1–4, 6, and 8 after infection. All experimental procedures followed the National Institutes of Health Guide for the Care and Use of Laboratory Animals, as well as the guidelines of the Animal Welfare and Committee of Institut Pasteur of Shanghai, Chinese Academy of Science, IACUC issue No. A2018009.

3D7^HDA1-TY1 = assay: Sensitivity of transgenic parasites to JX21108, 3D7^HDA1-TY1; assay type: cell-based; conditions: Plasmodium falciparum, 3D7, 4 h, read-out: EC50 for 3D7^HDA1-TY1
Experimental: (§3) Highly synchronized schizont-stage parasites were prepared and treated as described above, with adjustments. […] After washing, parasites were cultured in new CM for another 68 h. Parasite growth was monitored by SYBR Green I staining, as described above. The EC50 was calculated by GraphPad Prism.

3D7^HDAC1-TY1 = assay: Sensitivity of transgenic parasites to JX21108, 3D7^HDAC1-TY1; assay type: cell-based; conditions: Plasmodium falciparum, 3D7, 4 h, read-out: EC50 for 3D7^HDAC1-TY1
Experimental: as §3

3D7^HDAC1-glmS = assay: Sensitivity of transgenic parasites to JX21108, 3D7^HDAC1-glmS; assay type: cell-based, Plasmodium falciparum
Experimental: as §3

hHDAC1 = target: T1, hHDAC1 (Homo sapiens, UniProt Q13547); assay: Human HDAC inhibition assay, hHDAC1; assay type: biochemical; conditions: performed only once; read-out: Inhibitory Activity IC50, hHDAC1
T1 construct: purchased BPS Bioscience 50058
Experimental: (§4) SAHA and suramin were used as positive controls. The tested compounds were dissolved into 20 mM stock in 100% DMSO. […] Ten microliters of trypsin and Ac-peptide substrate/Tris buffer solution were added to start the reaction, followed by a 1-h incubation at room temperature for HDACs 1–3 and 6. Ten microliters of Ac-peptide substrate/Tris buffer solution was added to start the reaction, followed by a 4-h incubation at room temperature and a further 2-h incubation with trypsin solution for HDAC8 and Sirt 2. […] This experiment was performed only once.

hHDAC3 = target: T2, hHDAC3 (Homo sapiens, UniProt O15379); assay: Human HDAC inhibition assay, hHDAC3; assay type: biochemical; conditions: performed only once; read-out: Inhibitory Activity IC50, hHDAC3
T2 construct: purchased BPS Bioscience 50003
Experimental: as §4

hHDAC6 = target: T3, hHDAC6 (Homo sapiens, UniProt Q9UBN7); assay: Human HDAC inhibition assay, hHDAC6; assay type: biochemical; conditions: performed only once; read-out: Inhibitory Activity IC50, hHDAC6
T3 construct: purchased BPS Bioscience 50046
Experimental: as §4

hSirt2 = target: T4, hSirt2 (Homo sapiens, UniProt Q8IXJ6); assay: Human HDAC inhibition assay, hSirt2; assay type: biochemical; conditions: performed only once; read-out: Inhibitory Activity IC50, hSirt2
T4 construct: purchased BPS Bioscience 50013
Experimental: as §4

human HDACs = assay: Human HDAC inhibition assay, summary; assay type: biochemical
Experimental: as §4

T1 sequence (Q13547 whole entry): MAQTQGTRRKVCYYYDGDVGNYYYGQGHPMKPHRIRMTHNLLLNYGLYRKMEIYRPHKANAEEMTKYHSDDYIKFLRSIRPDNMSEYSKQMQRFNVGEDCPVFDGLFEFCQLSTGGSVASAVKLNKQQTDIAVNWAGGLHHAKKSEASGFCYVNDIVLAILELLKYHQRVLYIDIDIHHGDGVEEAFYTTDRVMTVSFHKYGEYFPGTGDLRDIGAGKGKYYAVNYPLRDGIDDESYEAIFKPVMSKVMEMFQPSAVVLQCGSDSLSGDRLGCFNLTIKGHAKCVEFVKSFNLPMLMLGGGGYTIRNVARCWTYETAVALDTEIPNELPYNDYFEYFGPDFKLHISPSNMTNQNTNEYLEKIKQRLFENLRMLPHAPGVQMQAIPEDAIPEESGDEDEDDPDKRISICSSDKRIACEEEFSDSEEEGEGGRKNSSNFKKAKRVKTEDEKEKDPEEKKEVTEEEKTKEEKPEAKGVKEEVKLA
T4 sequence (Q8IXJ6 whole entry): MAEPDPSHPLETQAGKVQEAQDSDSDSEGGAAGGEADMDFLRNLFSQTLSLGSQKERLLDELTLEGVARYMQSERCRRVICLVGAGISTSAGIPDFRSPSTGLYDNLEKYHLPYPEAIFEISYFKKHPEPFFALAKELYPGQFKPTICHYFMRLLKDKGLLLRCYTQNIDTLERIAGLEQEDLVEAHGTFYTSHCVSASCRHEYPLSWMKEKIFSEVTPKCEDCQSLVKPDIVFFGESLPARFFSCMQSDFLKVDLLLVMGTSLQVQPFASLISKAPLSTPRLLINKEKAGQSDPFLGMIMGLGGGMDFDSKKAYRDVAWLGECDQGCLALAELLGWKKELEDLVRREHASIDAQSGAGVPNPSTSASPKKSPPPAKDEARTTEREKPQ
T3 sequence (Q9UBN7 whole entry): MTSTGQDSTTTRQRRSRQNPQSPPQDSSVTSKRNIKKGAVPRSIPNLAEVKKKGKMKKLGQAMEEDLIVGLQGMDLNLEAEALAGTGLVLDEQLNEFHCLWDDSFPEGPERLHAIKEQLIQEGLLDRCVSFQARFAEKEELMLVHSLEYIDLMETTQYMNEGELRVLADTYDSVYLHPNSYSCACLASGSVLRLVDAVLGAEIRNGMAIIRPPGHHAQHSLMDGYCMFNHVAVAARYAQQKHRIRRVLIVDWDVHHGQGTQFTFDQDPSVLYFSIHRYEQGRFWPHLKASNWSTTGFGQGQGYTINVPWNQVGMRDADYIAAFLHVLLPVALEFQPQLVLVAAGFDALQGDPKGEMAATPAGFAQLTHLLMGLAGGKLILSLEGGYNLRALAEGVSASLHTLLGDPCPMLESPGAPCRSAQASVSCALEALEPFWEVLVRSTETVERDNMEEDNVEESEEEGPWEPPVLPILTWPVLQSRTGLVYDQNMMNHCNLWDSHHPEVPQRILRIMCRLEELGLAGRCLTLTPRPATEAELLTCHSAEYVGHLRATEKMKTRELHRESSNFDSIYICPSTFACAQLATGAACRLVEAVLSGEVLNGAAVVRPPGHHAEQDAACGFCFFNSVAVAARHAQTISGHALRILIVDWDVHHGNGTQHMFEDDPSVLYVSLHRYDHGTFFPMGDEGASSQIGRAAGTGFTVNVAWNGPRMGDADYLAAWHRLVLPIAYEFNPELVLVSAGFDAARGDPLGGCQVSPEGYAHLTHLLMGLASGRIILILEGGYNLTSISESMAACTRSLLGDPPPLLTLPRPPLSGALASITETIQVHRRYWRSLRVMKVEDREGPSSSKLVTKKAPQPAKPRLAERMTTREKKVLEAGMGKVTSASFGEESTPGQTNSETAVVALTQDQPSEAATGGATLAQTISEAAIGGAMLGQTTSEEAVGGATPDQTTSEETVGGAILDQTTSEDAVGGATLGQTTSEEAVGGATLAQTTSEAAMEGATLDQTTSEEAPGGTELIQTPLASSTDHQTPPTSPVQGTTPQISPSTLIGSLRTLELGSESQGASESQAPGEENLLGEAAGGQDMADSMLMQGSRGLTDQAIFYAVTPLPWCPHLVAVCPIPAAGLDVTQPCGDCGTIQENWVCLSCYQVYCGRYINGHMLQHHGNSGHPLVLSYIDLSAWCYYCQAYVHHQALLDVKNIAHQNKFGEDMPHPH
T2 sequence (O15379 whole entry): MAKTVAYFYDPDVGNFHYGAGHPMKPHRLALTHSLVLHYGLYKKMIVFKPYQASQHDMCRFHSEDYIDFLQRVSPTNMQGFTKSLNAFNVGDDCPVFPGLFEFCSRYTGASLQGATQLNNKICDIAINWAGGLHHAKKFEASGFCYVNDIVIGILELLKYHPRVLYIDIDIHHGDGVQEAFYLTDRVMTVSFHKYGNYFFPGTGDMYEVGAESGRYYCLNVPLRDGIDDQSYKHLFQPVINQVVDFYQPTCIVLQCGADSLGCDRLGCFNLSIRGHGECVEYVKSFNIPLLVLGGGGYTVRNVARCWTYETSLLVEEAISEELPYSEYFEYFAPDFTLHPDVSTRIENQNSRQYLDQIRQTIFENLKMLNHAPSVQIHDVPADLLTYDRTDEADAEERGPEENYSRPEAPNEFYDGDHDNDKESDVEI
T2 sequence (Q9Y618 395-489 partner limits assumed): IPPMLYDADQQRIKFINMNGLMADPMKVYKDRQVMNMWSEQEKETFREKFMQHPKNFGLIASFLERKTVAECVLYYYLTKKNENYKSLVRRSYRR

Cl.Cn1cc(CN2CCC3(CCN(c4ncc(C(=O)NO)cn4)C3)C2)c2cc(C#N)ccc21 (stereo not shown) [JX21108]
EC50 (P. falciparum 3D7 [1]): 3.57 ± 0.06 nM | EC50 (P. falciparum 3D7 [1]; Plasmodium falciparum, 3D7, 72 h): 3.6 nM | EC50 at 72 h [2]: 1190 ± 233 nM | Selectivity index for 293T (EC50 293T/EC50 3D7) (293T cells): ~ 331 and 334 and 331 | EC50 (P. falciparum CP286): 7 ± 0.6 nM | EC50 [3]: 2.2 ± 0.2 nM | EC50 [4]: 2.6 ± 0.2 nM | EC50 ([5]; three strains tested, read-out: EC50 values on strains GB4, C2A and CP286): 2 to 8 nM | EC50 ([5]; variety of geographically representative strains, read-out: EC50 against drug-sensitive and multidrug-resistant strains of P. falciparum): 2 to 7 nM | RSA effect on ring-stage parasites of 3D7 (P. falciparum 3D7 [6]): efficiently killed the ring-stage parasites | CLint scaled at 1 µM ([7]; mouse liver microsomes, read-out: CL in liver microsomes): 7.32 mL/min/kg | half-life at 1 µM ([7]; read-out: T1/2 in liver microsomes): 12.4 h | half-life at 1 µM ([7]; read-out: half-life in mouse liver microsomes (converted)): 12.4 h | effect on liver infection or subsequent blood-stage P. berghei infection ([8]; single 30 mg/kg dose i.v.): did not produce significant effects | liver infection (bioluminescence) ([8]; single 60 mg/kg dose i.v., 2 dpi): did not show signs of liver infection | blood-stage infection ([8]; single 60 mg/kg dose i.v., until 8 dpi): nor did the treated mice show any blood-stage infection | EC50 (3D7^HDA1-TY1): 330 ± 57 nM | EC50 (3D7^HDAC1-TY1): 114 ± 26.5 nM | shift in sensitivity on PfHDAC1 KD (3D7^HDAC1-glmS; 3D7^HDAC1-glmS vs 3D7^HDAC1-TY1): 5.5 fold | EC50 (3D7^HDAC1-glmS; Plasmodium falciparum, 3D7, 4 h, read-out: EC50 for 3D7^HDAC1-glmS): 20.5 ± 6.95 nM | IC50 (hHDAC1): 1.8 nM | IC50 (hHDAC3): 19 nM | IC50 (hHDAC6): 66 nM | IC50 (hSirt2): > 10000 nM | lower inhibitory activity on human HDACs than quisinostat (human HDACs): approximately 4 fold

Reference: paper PMC7733455, “A novel multistage antiplasmodial inhibitor targeting Plasmodium falciparum histone deacetylase 1” (Cell Discovery, 2020)
